{"source": "patent US20170296573A1", "about": "“ANTITUMOR DRUG COMPRISING BETA-CYCLODEXTRIN” (JRC G. K., priority 2014, published 2017)", "molecules": {"B1": {"name": "TRAIL: TNF-related apoptosis-inducing ligand (protein, UniProt P50591 1-281, looked up)", "Tumor necrosis factor ligand …": "MAMMEVQGGPSLGQTCVLIVIFTVLLQSLCVAVTYVYFTNELKQMQDKYSKSGIACFLKEDDSYWDPNDEESMNSPCWQVKWQLRQLVRKMILRTSEETISTVQEKQQNISPLVRERGPQRVAAHITGTRGRSNTLSSPNSKNEKALGRKINSWESSRSGHSFLSNLHLRNGELVIHEKGFYYIYSQTYFRFQEEIKENTKNDKQMVQYIYKYTSYPDPILLMKSARNSCWSKDAEYGLYSIYQGGIFELKENDRIFVSVTNEHLIDMDHEASFFGAFLVG"}}, "key": {"AKT [1]": {"test_system": "AKT", "assay": "Example 2 Method A: AKT phosphorylation in RCC4 cells stimulated with IGF1, serum free", "type": "cell-based", "details": "10 mM 2DG 2 hours, 10 mM bCD (MBCD), 0-30 ng/ml IGF1 5 minutes", "experimental": "We ran 20 μg of proteins per lane for western blots. We ran 8, 10, 12.5 and 15% gels depending on the size of proteins being detected by western blots. When there are two proteins having a similar size, gel is flowed in each protein to make western blot analysis about each protein. The immunoprecipitation was undergone by adding 200 μg of protein from solubilized cells and Protein G Sepharose or Protein A Sepharose (Sigma P3296/P9242) pre-conjugated with immunoprecipitation antibody to a buffer for immunoprecipitation, and slowly rotating the tube containing the sample buffer at 4° C. overnight. The buffer for immunoprecipitation comprises 20 mM Tris Ph 7.5, 1% Triton-X100, 150 mM NaCl, phosphatase inhibitor cocktail (Cell Signaling (#58709S)), and 10% glycerol. Next morning, the content in the tube was centrifuged. The precipitate was washed with the same buffer twice and dissolved in SDS buffer. The precipitate in the solution was separated with 15% SDS-PAGE or 12.5% SDS-PAGE and analyzed by Western blotting.\nThe bCD used herein was MBCD.\nRCC4 cells were incubated in serum free media for 2 hours with or without 10 mM 2DG. In the last hour, 10 mM bCD was added to each one subset of the cells treated/untreated with 2DG. Then 0-30 ng/ml IGF1 was added and the incubation continued for 5 minutes before the cells were harvested and analyzed by Western blotting."}, "UOK121 cells": {"test_system": "UOK121 cells", "assay": "Example 10 Test B: cyclodextrin with 2DG-ABT in UOK121 cells, live cells by trypan-blue dye exclusion", "type": "cell-based, human", "details": "10 mM 2DG, 10 mM cyclodextrin, 0.3 μM ABT-263, 25 mM glucose", "description": "(§1) Dead and live cells were counted by trypan-blue dye exclusion methods. These experiments were done in triplicate, and the error bars indicate the standard deviation.\n(Test A) UOK121 cells were incubated in 10% serum medium with 5 mM or 10 mM α-, β-, and γ-cyclodextrins for 45 minutes. The same medium without any cyclodextrin was also incubated as a control. The cells were harvested and analyzed by Western Blots for the phosphorylation of AKT and ERK1/2 as an indicator of the AKT and ERK1/2 activations. (Test B) 10 mM 2DG was added to a medium of U0K121 cells in the presence of 25 mM glucose, and the medium was incubated for 1.5 hours. To the medium was added 10 mM α-, β-, or γ-cyclodextrin, and the medium was incubated for 30 minutes. Then, 0.3 μM ABT-263 was added thereto, and the medium was further incubated for 2 hours. Separately, a control that includes only α-, β-, or γ-cyclodextrin without 2DG or ABT-263, and another control that includes neither α-, β-, or γ-cyclodextrin, nor 2DG or ABT-263 were prepared. 2.5 hours after adding each cyclodextrin (i.e., 2 hours after adding ABT-263), all the cells were washed with the medium twice, and next day the live cells were counted by trypan-blue dye exclusion assay."}, "AKT [2]": {"test_system": "AKT", "assay": "Example 10 Test A: AKT activation in UOK121 cells with α-, β-, γ-cyclodextrins", "type": "cell-based, human", "details": "10% serum, 5 mM or 10 mM cyclodextrin, 45 minutes", "description": "We ran 20 μg of proteins per lane for western blots. We ran 8, 10, 12.5 and 15% gels depending on the size of proteins being detected by western blots. When there are two proteins having a similar size, gel is flowed in each protein to make western blot analysis about each protein. The immunoprecipitation was undergone by adding 200 μg of protein from solubilized cells and Protein G Sepharose or Protein A Sepharose (Sigma P3296/P9242) pre-conjugated with immunoprecipitation antibody to a buffer for immunoprecipitation, and slowly rotating the tube containing the sample buffer at 4° C. overnight. The buffer for immunoprecipitation comprises 20 mM Tris Ph 7.5, 1% Triton-X100, 150 mM NaCl, phosphatase inhibitor cocktail (Cell Signaling (#58709S)), and 10% glycerol. […] The precipitate in the solution was separated with 15% SDS-PAGE or 12.5% SDS-PAGE and analyzed by Western blotting.\n(Test A) UOK121 cells were incubated in 10% serum medium with 5 mM or 10 mM α-, β-, and γ-cyclodextrins for 45 minutes. […] The cells were harvested and analyzed by Western Blots for the phosphorylation of AKT and ERK1/2 as an indicator of the AKT and ERK1/2 activations. […] 2.5 hours after adding each cyclodextrin (i.e., 2 hours after adding ABT-263), all the cells were washed with the medium twice, and next day the live cells were counted by trypan-blue dye exclusion assay."}, "caspase 9": {"test_system": "caspase 9", "assay": "Example 7: caspase 9 cleavage in RCC4 cells, Western blot", "type": "cell-based", "experimental": "(§2) (A and B) RCC4 cells were treated with 2DG, bCD, 2DG +bCD, or left untreated as done in Example 6. Approximately 20 μg of the whole cell lysates (WCL) were analyzed by western blotting. Bak- and Bcl-xL-bound proteins were immune-precipitated from approximately 200 μg of cell lysates and analyzed by western blotting. (C) 3 μM ABT with or without the 20 μM pan-caspase inhibitor z-VAD was added to the cells pre-treated with the combination of 2DG and bCD over 2 hours, and analyzed by Western blotting for caspase 9. […]"}, "cytochrome c": {"test_system": "cytochrome c", "assay": "Example 7: cytochrome c release assay in RCC4 cells", "type": "cell-based", "details": "RCC4 cells pre-treated with 2DG-bCD", "experimental": "RCC4 cells grown and treated on glass cover slips were first fixed with 3.7% formaldehyde in PBS for 10 minutes. Then the cover slips were briefly exposed to 100% methanol kept in a −20° C. freezer. Cover slips were incubated with 10% serum in PBS before being stained with mouse anti-cytochrome c antibody overnight. Next morning, the cover slips were washed and blocked with 10% serum in PBS for 30 minutes. Then they were exposed to secondary anti-mouse antibody conjugated with AF488 for 30 minutes. They were washed again and exposed to propidium iodide (1 μg/mL in PBS) for 15 minutes to stain DNA in the nucleus before being washed and mounted on the glass slides. We used a Keyence BZ9000 microscope with a 100× objective lens for observation. […] (E) RCC4 cells treated with 2DG-bCD (left panel), RCC4 cells treated with 2DG-bCD-ABT (middle panel), and RCC4 cells treated with 2DG-bCD-ABT in the presence of 20 μM pan-caspase inhibitor z-VAD (right panel) were immunostained using anti-cytochrome c antibody and GFP-conjugated anti-mouse antibody. Nuclei were stained red with propidium iodide."}, "Bak-Bcl-xL complex": {"biological_target": "Bak-Bcl-xL complex (Homo sapiens, UniProt Q07817)", "sequence (Q07817 whole entry, one chain of several)": "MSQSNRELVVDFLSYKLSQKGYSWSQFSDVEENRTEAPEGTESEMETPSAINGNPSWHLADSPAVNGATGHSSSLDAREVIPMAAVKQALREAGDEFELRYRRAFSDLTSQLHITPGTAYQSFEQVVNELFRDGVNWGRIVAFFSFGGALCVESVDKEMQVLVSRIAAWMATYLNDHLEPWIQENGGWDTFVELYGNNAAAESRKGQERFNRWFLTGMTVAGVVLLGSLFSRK", "assay": "Example 7: immunoprecipitation of Bak-bound proteins in RCC4 cells, Bcl-xL", "type": "cell-based", "details": "RCC4 cells pre-treated with 2DG and bCD, 3 μM ABT", "experimental": "as §2"}, "Panc-1 cells": {"test_system": "Panc-1 cells", "assay": "Example 9: 2DG-bCD-TRAIL in Panc-1 cells, live cells by trypan-blue dye exclusion", "type": "cell-based", "details": "TRAIL 10 ng/ml alone", "description": "as §1\n(A) Panc-1 cells were treated with the standard 2DG-bCD-TRAIL protocol (FIG. 3). The live cells were distinguished from the dead cells by trypan-blue dye exclusion assays, and the live cells were counted, and graphed. The experiments were performed in triplicate and the error bars represent the standard deviations. (B) Western blots of Panc-1 cells left untreated, treated with TRAIL, treated with 2DG-bCD combination, and treated with the combination of 2DG-bCD-TRAIL as depicted in FIG. 3. The cells were harvested at hour 6. The experiments were repeated three times with similar results."}}, "data": [{"molecule": "O=CC[C@@H](O)[C@H](O)[C@H](O)CO", "note": "[2DG, 2-deoxyglucose]", "values": [{"measurement": "AKT phosphorylation", "setting": "AKT [1]", "result": "increasing the phosphorylation of AKT"}]}, {"molecule": "OC[C@H]1O[C@@H]2O[C@H]3[C@H](O)[C@@H](O)[C@@H](O[C@H]4[C@H](O)[C@@H](O)[C@@H](O[C@H]5[C@H](O)[C@@H](O)[C@@H](O[C@H]6[C@H](O)[C@@H](O)[C@@H](O[C@H]7[C@H](O)[C@@H](O)[C@@H](O[C@H]8[C@H](O)[C@@H](O)[C@@H](O[C@H]1[C@H](O)[C@H]2O)O[C@@H]8CO)O[C@@H]7CO)O[C@@H]6CO)O[C@@H]5CO)O[C@@H]4CO)O[C@@H]3CO", "note": "[β-cyclodextrin]", "values": [{"measurement": "enhancement of the combination effect of 2DG-ABT (live cells)", "setting": "UOK121 cells", "result": "clearly enhanced"}, {"measurement": "AKT activation (phosphorylation)", "setting": "AKT [2]", "result": "lowered"}]}, {"molecule": "CC1(C)CCC(c2ccc(Cl)cc2)=C(CN2CCN(c3ccc(C(=O)NS(=O)(=O)c4ccc(N[C@H](CCN5CCOCC5)CSc5ccccc5)c(S(=O)(=O)C(F)(F)F)c4)cc3)CC2)C1", "note": "[ABT, ABT-263]", "values": [{"measurement": "caspase 9 activation", "setting": "caspase 9; RCC4 cells pre-treated with 2DG and bCD, 3 μM ABT", "result": "activated"}, {"measurement": "time to full caspase 9 activation", "setting": "caspase 9; after ABT addition, RCC4 cells pre-treated with 2DG-bCD", "result": "≤ 2", "unit": "h"}, {"measurement": "release of cytochrome c from mitochondria", "setting": "cytochrome c; with or without 20 μM z-VAD", "result": "took place only after the addition of ABT"}, {"measurement": "time to full release of cytochrome c", "setting": "cytochrome c; after ABT addition", "result": "≤ 2", "unit": "h"}, {"measurement": "Bak-Bcl-xL complex", "setting": "Bak-Bcl-xL complex", "result": "caused the dissociation"}]}, {"molecule": "B1", "values": [{"measurement": "effect on Panc-1 cells (live cells)", "setting": "Panc-1 cells", "result": "virtually no effect"}]}]}
